Source: ChEMBL document CHEMBL5674860, “Optimized Dual-Glo Assay to identify co-culture-induced drug vulnerabilities in 3D CRC models” (2024)

Assays:
Assay type in all cases: functional, Homo sapiens
Set-up in all cases: dose or concentration left out as unconfirmed
[1] = tested on: Colon cancer organoid; assay: Optimized Dual-Glo assay to identify co-culture induced drug vulnerabilities using donated chemical probes and chemogenomics kinase set in O14 CRC organoid and F14 CAF mono and co-culture. […] Cell viability is reported both mono and co-culture models.
[2] = tested on: Colon cancer organoid; assay: Optimized Dual-Glo assay to identify co-culture induced drug vulnerabilities using donated chemical probes and chemogenomics kinase set in O20 CRC organoid and F20 CAF mono and co-culture. […] Cell viability is reported both mono and co-culture models.
[3] = tested on: Colon cancer organoid; assay: Optimized Dual-Glo assay to identify co-culture induced drug vulnerabilities using donated chemical probes and chemogenomics kinase set in O06 CRC organoid and F06 CAF mono and co-culture. […] Cell viability is reported both mono and co-culture models.
[4] = Culture type Co-Culture, Transduced with Lucferase2-P2A-EGFP lentivirus
[5] = Culture type Co-Culture, Transduced with Renilla-dsRed lentivirus
[6] = Culture type Mono-Culture, Transduced with Lucferase2-P2A-EGFP lentivirus
[7] = Culture type Mono-Culture, Transduced with Renilla-dsRed lentivirus

| Structure (SMILES) | Cell Viability [1, 4] | Cell Viability [1, 5] | Cell Viability [1, 6] | Cell Viability [1, 7] | Cell Viability [2, 4] | Cell Viability [2, 5] | Cell Viability [2, 6] | Cell Viability [2, 7] | Cell Viability [3, 4] | Cell Viability [3, 5] | Cell Viability [3, 6] | Cell Viability [3, 7] |
| --- | --- | --- | --- | --- | --- | --- | --- | --- | --- | --- | --- | --- |
| O=C(NCCN1CCOCC1)c1ccc2c(c1)C(=O)c1ccc(Nc3ccc(F)c(NC(=O)c4ccccc4)c3)cc1CC2 [FS-694] | 102.563% | 98.243% | 144.079% | 81.8914% | 66.004% | 119.038% | 94.4809% | 79.2545% | 67.8661% | 67.282% | 66.9088% | 83.7797% |
| CC(C)(C)OC(=O)N1CCCC1CNC1CCC(c2cc(F)ccc2F)(S(=O)(=O)c2ccc(Cl)cc2)CC1 (stereo unspecified) [GSI-NC] | 82.5384% | 107.99% | 97.33% | 95.7632% | 93.8933% | 100.789% | 108.621% | 95.0953% | 109.794% | 188.651% | 83.1857% | 79.5795% |
| CC(=O)Nc1c(F)cc(C(=O)N[C@H]2CC[C@H](O)CC2)cc1O[C@@H](C)c1ccccc1 [GSK046] | 94.8329% | 149.721% | 98.5047% | 138.141% | 117.929% | 118.66% | 59.393% | 129.379% | 141.493% | 157.689% | 89.308% | 140.24% |
| CNC(=O)c1cc(C(=O)NC2CC2)cn(Cc2ccccc2)c1=O [GSK620] | 179.546% | 145.239% | 105.323% | 134% | 92.6025% | 100.747% | 72.9667% | 110.848% | 111.223% | 132.009% | 81.6367% | 131.621% |
| COCc1nc2cnc3cc(-c4c(C)noc4C)c(OC[C@H]4CCNC4)cc3c2n1[C@H](C)c1ccccc1 [GSK778] | 59.3767% | 280.444% | 39.3913% | 175.876% | 27.5933% | 143.906% | 31.8546% | 105.119% | 81.063% | 183.714% | 53.5183% | 186.322% |
| Cc1cc2c(-c3ccco3)cnc(N[C@@H]3CCN(C)C[C@H]3C(=O)NC3CCCCC3)c2[nH]c1=O [GSK789] | 80.165% | 245.195% | 48.5278% | 143.743% | 33.945% | 125.83% | 39.8308% | 103.931% | 76.5976% | 134.369% | 59.8107% | 179.691% |
| Cc1cc2c(-c3ccco3)cnc(N[C@H]3CCN(C)C[C@@H]3C(=O)NC3CCCCC3)c2[nH]c1=O [GSK791] | 95.0265% | 100.863% | 120.55% | 112.529% | 101.755% | 116.18% | 85.6153% | 75.9377% | 113.813% | 153.556% | 183.923% | 92.8694% |
| CNC(=O)c1cc(C(=O)N[C@H]2[C@@H]3COC[C@@H]32)cc2c1O[C@@H](CF)[C@@H]2c1ccccc1 [GSK943] | 119.043% | 94.0726% | 104.923% | 119.987% | 106.252% | 108.354% | 98.6986% | 128.773% | 83.6271% | 130.888% | 89.2117% | 119.155% |
| CNC(=O)c1cc(C(=O)N[C@H]2[C@@H]3COC[C@@H]32)cc2c1O[C@H](CF)[C@H]2c1ccccc1 [GSK973] | 93.0111% | 167.902% | 105.165% | 155.71% | 97.8368% | 135.509% | 77.6772% | 131.324% | 110.942% | 170.924% | 57.9314% | 146.399% |
| C[C@@H](Oc1cc(-n2cnc3ccc(CN4CCN(C)CC4)cc32)sc1C(N)=O)c1ccccc1C(F)(F)F [GSK-461364] | 37.954% | 173.445% | 46.1468% | 90.9348% | 36.0345% | 141.481% | 13.8424% | 71.1921% | 8.2073% | 127.3% | 6.274% | 91.647% |
| O=C(O)c1ccc(-c2c[nH]c3ncc(-c4ccccc4)cc23)cc1C1CCCC1 [GSK-650394] | 84.2987% | 94.4983% | 153.467% | 103.115% | 93.9419% | 129.576% | 65.3151% | 121.845% | 150.298% | 125.274% | 142.061% | 114.363% |
| CCn1cc(-c2ccnc3[nH]c(-c4cccc(CN(C)C)c4)cc23)c(-c2ccc(NC(=O)N(C)C)cc2)n1 [GSK-1070916] | 29.7048% | 205.838% | 28.675% | 102.681% | 9.493% | 207.056% | 12.2557% | 100.034% | 8.589% | 116.692% | 3.637% | 93.7927% |
| COc1ccc(COc2ccc(Cc3cnc(N)nc3N)cc2OC)cc1 [GW632580X] | 102.637% | 115.835% | 144.397% | 94.931% | 200.024% | 84.9331% | 115.095% | 88.8877% | 84.8428% | 83.7807% | 109.175% | 109.596% |
| COc1cc2ncn(-c3cc(OCc4ccccc4C(F)(F)F)c(C(N)=O)s3)c2cc1OC [GW843682X] | 8.715% | 209.484% | 23.2418% | 105.344% | 89.2195% | 152.214% | 57.1216% | 108.759% | 4.781% | 182.458% | 3.81% | 121.646% |
| CCOc1cc2ncc(C#N)c(Nc3ccc(OCc4cccc(F)c4)c(Cl)c3)c2cc1NC(=O)/C=C/CN(C)C [HKI-357] | 25.3344% | 46.9424% | 1.402% | 33.5455% | 50.2885% | 47.1207% | 7.299% | 36.419% | 16.8896% | 39.6819% | 6.232% | 45.0211% |
| CCN1CCN(c2ccc(Nc3cc(N(C)C(=O)Nc4c(Cl)c(OC)cc(OC)c4Cl)ncn3)cc2)CC1 [INFIGRATINIB] | 13.9667% | 230.084% | 45.8266% | 126.071% | 101.104% | 52.242% | 73.2403% | 44.318% | 0.6967% | 125.024% | 12.6822% | 113.181% |
| Cc1c(Oc2ccc(F)cc2)c(OC(C)C)nn1-c1ccc(C2CC2)cn1 [IPP/CNRS-A019] | 97.1985% | 110.863% | 115.046% | 92.4816% | 91.1919% | 118.396% | 98.5803% | 101.782% | 92.46% | 90.9232% | 83.1676% | 103.472% |
| COCCc1ccc(-c2c(C)nc3c(N4CCOCC4)ccnn23)cn1 [JNJ-42396302] | 101.077% | 99.3561% | 103.596% | 90.5469% | 126.017% | 102.271% | 117.378% | 103.223% | 95.3565% | 88.7666% | 124.422% | 103.43% |
